Test [1] deals with Rattus norvegicus. As to the kind of experiment: Cardioprotective activity in Rattus norvegicus Sprague-Dawley (rat) ischemia-reperfusion injury model assessed as decrease in polymorphonuclear leukocytes infiltration in myocardial tissue at 20 mg/kg, iv measured 10 min prior to reperfusion measured at 6 hr by hematoxylin-eosin staining-based light microscopy relative to untreated control. The format is functional, organism-based. Set-up: dose 20 mg/kg. Conditions: Myocardium.

The subject of test [2] is Rattus norvegicus. As to the kind of experiment: Cardioprotective activity in Rattus norvegicus Sprague-Dawley (rat) ischemia-reperfusion injury model assessed as area at risk in myocardial tissue at 20 mg/kg, iv administered 10 min prior to ischemia-reperfusion establishment measured after 6 hr by Evans blue staining-based planimetric analysis (reference value: 49.8 +/- 3.7 %). The test is classed as functional, Myocardium.

Test [3] has as its system Rattus norvegicus. As to the kind of experiment: Cardioprotective activity in Rattus norvegicus Sprague-Dawley (rat) ischemia-reperfusion injury model assessed as decrease in myocardial infarct size at 20 mg/kg, iv administered 10 min prior to ischemia-reperfusion establishment measured after 6 hr by tetrazolium chloride staining-based planimetric analysis (reference value: 42.6 +/- 3.8 %). The format is functional, Myocardium. Set-up: scale not given: the % may be the effect or the level left.

Test [4] relates to Rattus norvegicus. As to the kind of experiment: Downregulation of ICAM-1 expression in Rattus norvegicus Sprague-Dawley (rat) heart at 20 mg/kg, iv measured 10 min post LAD ligation by Western blot analysis relative to untreated control. The test is classed as functional, organism-based. Set-up: dose 20 mg/kg. Background: A western blot detects proteins with antibodies after separation by electrophoresis.

Test [5] concerns Rattus norvegicus. As to the kind of experiment: Cardioprotective activity in Rattus norvegicus Sprague-Dawley (rat) ischemia-reperfusion injury model assessed as decrease in myeloperoxidase activation in myocardial tissue at 20 mg/kg, iv measured 10 min prior to reperfusion measured at 6 hr by spectrophotometric analysis relative to untreated control. The test is classed as functional, organism-based. Set-up: dose 20 mg/kg. The note with it: Myocardium.

SMILES strings stand for the structures. The source made the active and inactive calls. No cut-off for these calls is given here.

On to `CC(C)=CCC[C@](C)(O[C@@H]1O[C@H](CO)[C@@H](O)[C@H](O)[C@H]1O)[C@H]1CC[C@]2(C)[C@@H]1[C@H](O)C[C@@H]1[C@@]3(C)CC[C@H](O)C(C)(C)[C@@H]3[C@@H](O[C@@H]3O[C@H](CO)[C@@H](O)[C@H](O)[C@H]3O[C@@H]3O[C@@H](C)[C@H](O)[C@@H](O)[C@H]3O)C[C@]12C` [GINSENOSIDE RE], for which the outcome in the test with Rattus norvegicus [1], in the test with Rattus norvegicus [4] and in the test on Rattus norvegicus [5] was Active. In addition, the Activity was found to be 50.3% in the test on Rattus norvegicus [2] and 42.6% in the test with Rattus norvegicus [3].

The values above are taken from ChEMBL document CHEMBL3045189, “Ginsenoside Re downregulates ICAM-1 expression, inhibits polymorphonuclear infiltration, and ameliorates ischemia-reperfusion injury” (2010).
